Test [1] can be described thus: Inhibition of baboon liver mitochondrial monoamine oxidase B using 30 to 120 uM of MMTP by spectrophotometry. On the set-up: species or system Papio.
Test [2] can be described thus: Inhibition of baboon liver mitochondrial monoamine oxidase B using 50 uM of MMTP by spectrophotometry. On the set-up: species or system Papio.
For another test, the target named is Adenosine receptor A2a (Rattus norvegicus, UniProt P30543).
The subject of test [3] is Papio. The test is described as follows: Inhibition of baboon liver mitochondrial monoamine oxidase B at 30 uM by spectrophotometry.
Test [4] deals with Papio. The test is described as follows: Inhibition of baboon liver mitochondrial monoamine oxidase B at 1000 uM by spectrophotometry.

Consider 15 compounds from ChEMBL document CHEMBL1144166 (Bioorg Med Chem, 2008).

Several values for one entry are separate records, joined by “and”; a condition that tells them apart may be missing. Equal entries are not always repeated.

Chain of Adenosine receptor A2a (P30543 whole entry): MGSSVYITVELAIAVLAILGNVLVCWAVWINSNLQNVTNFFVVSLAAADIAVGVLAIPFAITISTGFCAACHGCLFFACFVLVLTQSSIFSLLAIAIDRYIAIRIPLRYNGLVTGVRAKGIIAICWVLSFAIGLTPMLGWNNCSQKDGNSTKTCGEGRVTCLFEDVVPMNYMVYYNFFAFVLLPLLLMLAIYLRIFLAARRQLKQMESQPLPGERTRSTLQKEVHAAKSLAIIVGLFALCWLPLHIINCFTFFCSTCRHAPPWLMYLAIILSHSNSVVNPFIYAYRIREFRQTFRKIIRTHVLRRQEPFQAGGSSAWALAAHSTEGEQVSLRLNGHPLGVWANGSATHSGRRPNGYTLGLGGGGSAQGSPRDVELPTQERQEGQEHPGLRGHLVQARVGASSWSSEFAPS
Description for Adenosine receptor A2a: Displacement of [3H]NECA from Sprague-Dawley rat adenosine A2A receptor by scintillation counting

In the case of `Cn1c(=O)c2c(nc(Cc3cccc(Cl)c3)n2C)n(C)c1=O`, the affinity in test [1] corresponds to a Ki of 54600 nM.
On the same count and under the same terms, as for `Cn1c(=O)c2c(nc(-c3ccccc3)n2C)n(C)c1=O`, the figure is 86200 nM.
Compound `CCn1c(/C=C/C=C/c2ccccc2)nc2c1c(=O)n(C)c(=O)n2C` had an IC50 in test [2] of 2370 nM. Further, the Ki in test [2] is 1370 nM; in test [1], 1710 nM; at Adenosine receptor A2a, 13.5 nM.
Consider `CCn1c(=O)c2c(nc(/C=C/C=C/c3ccccc3)n2CC)n(CC)c1=O`, for which the inhibition in the test with Papio [3] was 14.6%. The same compound gave a Ki on Adenosine receptor A2a of 7.73 nM.
`Cn1c(=O)c2c(nc(Cc3ccccc3)n2C)n(C)c1=O` displayed an inhibition in the test with Papio [4] of 18%.
Consider `CCn1c(=O)c2c(nc(/C=C/C=C/c3ccccc3)n2C)n(CC)c1=O`, for which, in the test on Papio [3], the inhibition was determined as 32.7%. Besides, the affinity on Adenosine receptor A2a corresponds to a Ki of 2.74 nM.
In the case of `Cn1c(=O)c2c(nc(-c3cccc(C(F)(F)F)c3)n2C)n(C)c1=O`, the inhibition with Papio [4] was 24%.
In test [2], `Cn1c(=O)c2c(nc(/C=C/C=C/c3ccccc3)n2C)n(C)c1=O` returned a concentration for half-maximal inhibition (IC50) of 383 nM. Further, the inhibitory constant (Ki) in test [2] is 221 nM; in test [1], 149 nM; at Adenosine receptor A2a it was 153 nM.
`Cn1c(=O)c2c(nc(/C=C/c3cccc(Br)c3)n2C)n(C)c1=O` came in with an IC50 in test [2] of 107 nM. The Ki in test [2] is 61.8 nM; in test [1], 62.7 nM.
Compound `Cn1c(=O)c2c(nc(/C=C/C=C/c3cccc(F)c3)n2C)n(C)c1=O` showed an IC50 in test [2] of 89 nM. Moreover, the Ki in test [2] was 51.4 nM; in test [1] it was 46.4 nM; on Adenosine receptor A2a it was 114 nM.
`Cn1c(=O)c2c(nc(/C=C/C=C/c3cccc(Br)c3)n2C)n(C)c1=O` had an IC50 in test [2] of 37.9 nM. Further, the values for the Ki (in test [2]; in test [1]; at Adenosine receptor A2a) were 21.9 nM, 17.2 nM and 59.1 nM, respectively.
`Cn1c(=O)c2c(nc(/C=C/c3ccc(Cl)c(Cl)c3)n2C)n(C)c1=O`: the IC50 in test [2] is 28.4 nM and 16.4 nM. In test [1], this compound yielded a Ki of 18.9 nM.
`Cn1c(=O)c2c(nc(-c3cccc(Cl)c3)n2C)n(C)c1=O` came in with a Ki in test [1] of 36000 nM.
With `Cn1c(=O)c2c(nc(Cc3cccc(C(F)(F)F)c3)n2C)n(C)c1=O`, in test [1], the affinity, expressed as Ki, was 97600 nM.
With `Cn1c(=O)c2c(nc(/C=C/C=C/c3cccc(Cl)c3)n2C)n(C)c1=O`, the IC50 in test [2] is 96.3 nM. For the same compound, the Ki in test [2] is 55.6 nM; in test [1] it was 42.1 nM; at Adenosine receptor A2a it was 104 nM.
